Calls of active or inactive are those of the source. The rule behind the calls is not given here.
Tests used:
HeLa = experiment: Antiproliferative activity against human HeLa cells after 72 hrs by celltiter-blue viability assay; format: functional, cell-based
Histone deacetylase 1 = Histone deacetylase 1 (Homo sapiens, UniProt Q13547)
Description: Inhibition of human recombinant C-terminally flag tagged HDAC1

[1] = Metabolic stability in rat liver microsomes assessed as intrinsic clearance; format: ADME, Microsome
Histone deacetylase 3 = Histone deacetylase 3 (Homo sapiens, UniProt O15379)
Chain of Histone deacetylase 3 (O15379 whole entry): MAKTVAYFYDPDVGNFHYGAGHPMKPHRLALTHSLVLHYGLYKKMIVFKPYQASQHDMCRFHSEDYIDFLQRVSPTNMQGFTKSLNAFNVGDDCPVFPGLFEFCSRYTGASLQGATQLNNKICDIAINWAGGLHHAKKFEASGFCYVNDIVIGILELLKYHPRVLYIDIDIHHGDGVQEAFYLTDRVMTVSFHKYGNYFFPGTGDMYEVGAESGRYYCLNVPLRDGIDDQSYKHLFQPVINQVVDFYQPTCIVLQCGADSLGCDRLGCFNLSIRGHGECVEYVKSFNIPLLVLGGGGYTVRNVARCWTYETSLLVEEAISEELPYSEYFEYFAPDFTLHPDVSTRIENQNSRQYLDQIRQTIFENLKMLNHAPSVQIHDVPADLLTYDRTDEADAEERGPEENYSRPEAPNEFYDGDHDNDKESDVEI

[2] = target: T1, Protein deacetylase HDAC6 (Homo sapiens, UniProt Q9UBN7)
T1 sequence (Q9UBN7 whole entry): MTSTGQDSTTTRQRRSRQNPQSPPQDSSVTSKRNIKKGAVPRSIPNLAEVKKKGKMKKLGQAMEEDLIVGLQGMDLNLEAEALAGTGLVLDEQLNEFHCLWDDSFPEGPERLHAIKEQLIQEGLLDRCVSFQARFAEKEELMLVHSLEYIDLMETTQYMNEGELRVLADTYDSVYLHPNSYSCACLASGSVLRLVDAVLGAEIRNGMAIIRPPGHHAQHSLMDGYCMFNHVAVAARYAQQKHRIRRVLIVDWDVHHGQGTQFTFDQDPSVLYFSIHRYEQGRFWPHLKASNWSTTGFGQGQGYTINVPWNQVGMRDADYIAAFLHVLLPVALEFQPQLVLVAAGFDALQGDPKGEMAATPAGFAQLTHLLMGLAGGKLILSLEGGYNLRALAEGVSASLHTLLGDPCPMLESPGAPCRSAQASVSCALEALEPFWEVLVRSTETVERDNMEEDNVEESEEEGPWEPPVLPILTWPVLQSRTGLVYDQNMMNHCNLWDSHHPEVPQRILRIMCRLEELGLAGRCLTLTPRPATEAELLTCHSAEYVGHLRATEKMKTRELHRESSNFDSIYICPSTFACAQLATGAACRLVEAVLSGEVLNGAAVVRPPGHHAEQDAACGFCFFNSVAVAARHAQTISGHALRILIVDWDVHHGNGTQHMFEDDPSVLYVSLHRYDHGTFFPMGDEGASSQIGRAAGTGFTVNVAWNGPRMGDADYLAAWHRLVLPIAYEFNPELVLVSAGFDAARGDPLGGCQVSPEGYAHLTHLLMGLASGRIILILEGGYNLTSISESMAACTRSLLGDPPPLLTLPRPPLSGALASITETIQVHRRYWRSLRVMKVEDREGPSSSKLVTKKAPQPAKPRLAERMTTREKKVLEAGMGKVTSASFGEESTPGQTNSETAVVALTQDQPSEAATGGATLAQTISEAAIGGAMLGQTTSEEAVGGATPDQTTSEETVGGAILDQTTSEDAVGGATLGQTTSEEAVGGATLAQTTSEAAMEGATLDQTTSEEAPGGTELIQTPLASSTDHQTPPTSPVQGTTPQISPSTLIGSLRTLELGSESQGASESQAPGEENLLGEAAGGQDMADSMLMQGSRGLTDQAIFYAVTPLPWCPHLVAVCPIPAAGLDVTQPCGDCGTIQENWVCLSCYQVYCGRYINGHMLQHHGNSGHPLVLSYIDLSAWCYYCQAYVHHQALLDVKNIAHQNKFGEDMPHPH

HCT-116 = experiment: In vivo antitumor activity against human HCT116 cells; format: functional, organism-based
Histone deacetylase 4 = Histone deacetylase 4 (Homo sapiens, UniProt P56524); experiment: Inhibition of HDAC4
Chain of Histone deacetylase 4 (P56524 whole entry): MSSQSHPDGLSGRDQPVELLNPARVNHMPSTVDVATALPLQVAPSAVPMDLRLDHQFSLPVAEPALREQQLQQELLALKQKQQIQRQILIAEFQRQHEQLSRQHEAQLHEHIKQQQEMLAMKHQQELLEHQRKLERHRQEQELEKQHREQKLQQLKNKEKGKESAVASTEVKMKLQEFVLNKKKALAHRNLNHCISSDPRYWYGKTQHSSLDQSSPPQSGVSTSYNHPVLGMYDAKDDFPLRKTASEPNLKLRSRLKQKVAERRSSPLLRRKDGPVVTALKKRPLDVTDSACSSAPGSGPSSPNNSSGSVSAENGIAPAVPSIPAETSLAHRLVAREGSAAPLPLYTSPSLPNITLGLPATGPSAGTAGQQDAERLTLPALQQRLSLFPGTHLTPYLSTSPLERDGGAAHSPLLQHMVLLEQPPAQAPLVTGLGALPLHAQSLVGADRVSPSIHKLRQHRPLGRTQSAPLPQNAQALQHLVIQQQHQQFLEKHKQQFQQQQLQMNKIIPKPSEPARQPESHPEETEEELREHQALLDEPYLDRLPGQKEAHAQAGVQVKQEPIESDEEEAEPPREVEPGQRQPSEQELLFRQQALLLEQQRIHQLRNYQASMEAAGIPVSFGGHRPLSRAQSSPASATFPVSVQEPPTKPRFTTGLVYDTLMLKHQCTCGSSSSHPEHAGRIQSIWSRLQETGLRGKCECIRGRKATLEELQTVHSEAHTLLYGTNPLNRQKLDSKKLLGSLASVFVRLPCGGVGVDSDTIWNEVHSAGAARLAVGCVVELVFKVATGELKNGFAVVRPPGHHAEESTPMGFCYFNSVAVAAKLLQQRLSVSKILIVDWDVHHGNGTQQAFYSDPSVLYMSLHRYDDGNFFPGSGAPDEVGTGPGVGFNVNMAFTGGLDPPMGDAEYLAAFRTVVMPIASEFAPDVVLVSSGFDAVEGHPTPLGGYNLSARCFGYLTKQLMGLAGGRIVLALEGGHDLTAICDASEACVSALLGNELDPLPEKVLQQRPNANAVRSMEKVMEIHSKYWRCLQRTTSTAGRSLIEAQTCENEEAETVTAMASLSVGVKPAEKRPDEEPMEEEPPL

Histone deacetylase 5 = Histone deacetylase 5 (Homo sapiens, UniProt Q9UQL6); experiment: Inhibition of HDAC5
Chain of Histone deacetylase 5 (Q9UQL6 whole entry): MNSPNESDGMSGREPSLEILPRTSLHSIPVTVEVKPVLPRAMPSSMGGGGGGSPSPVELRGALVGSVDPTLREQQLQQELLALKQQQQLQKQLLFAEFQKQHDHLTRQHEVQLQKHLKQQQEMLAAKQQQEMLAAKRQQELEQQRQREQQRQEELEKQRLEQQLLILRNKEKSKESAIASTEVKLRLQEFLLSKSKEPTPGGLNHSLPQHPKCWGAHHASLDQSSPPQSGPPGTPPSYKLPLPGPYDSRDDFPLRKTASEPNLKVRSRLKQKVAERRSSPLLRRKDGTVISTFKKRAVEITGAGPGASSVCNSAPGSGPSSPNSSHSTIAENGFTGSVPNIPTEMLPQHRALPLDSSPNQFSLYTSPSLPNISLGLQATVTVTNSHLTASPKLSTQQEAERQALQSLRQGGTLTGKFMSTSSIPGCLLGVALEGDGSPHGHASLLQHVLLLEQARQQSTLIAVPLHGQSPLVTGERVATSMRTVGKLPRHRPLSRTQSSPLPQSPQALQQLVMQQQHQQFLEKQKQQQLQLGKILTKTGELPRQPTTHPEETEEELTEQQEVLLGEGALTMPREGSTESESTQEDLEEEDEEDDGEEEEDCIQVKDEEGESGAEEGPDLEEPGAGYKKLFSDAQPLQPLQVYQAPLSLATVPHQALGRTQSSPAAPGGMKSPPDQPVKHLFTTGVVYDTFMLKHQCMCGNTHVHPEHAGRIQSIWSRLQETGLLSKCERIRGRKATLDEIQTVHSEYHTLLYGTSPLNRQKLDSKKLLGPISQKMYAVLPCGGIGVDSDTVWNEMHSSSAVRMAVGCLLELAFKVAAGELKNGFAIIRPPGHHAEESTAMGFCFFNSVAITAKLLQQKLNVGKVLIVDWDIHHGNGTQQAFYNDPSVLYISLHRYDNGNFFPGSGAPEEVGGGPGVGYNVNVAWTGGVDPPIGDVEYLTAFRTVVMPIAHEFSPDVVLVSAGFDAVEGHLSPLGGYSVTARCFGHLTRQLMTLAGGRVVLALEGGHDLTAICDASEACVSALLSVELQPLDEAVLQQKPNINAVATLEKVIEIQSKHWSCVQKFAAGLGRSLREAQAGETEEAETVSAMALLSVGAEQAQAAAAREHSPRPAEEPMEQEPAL

Histone deacetylase 7 = target: T2, Histone deacetylase 7 (Homo sapiens, UniProt Q8WUI4); experiment: Inhibition of HDAC7
T2 sequence (Q8WUI4 whole entry): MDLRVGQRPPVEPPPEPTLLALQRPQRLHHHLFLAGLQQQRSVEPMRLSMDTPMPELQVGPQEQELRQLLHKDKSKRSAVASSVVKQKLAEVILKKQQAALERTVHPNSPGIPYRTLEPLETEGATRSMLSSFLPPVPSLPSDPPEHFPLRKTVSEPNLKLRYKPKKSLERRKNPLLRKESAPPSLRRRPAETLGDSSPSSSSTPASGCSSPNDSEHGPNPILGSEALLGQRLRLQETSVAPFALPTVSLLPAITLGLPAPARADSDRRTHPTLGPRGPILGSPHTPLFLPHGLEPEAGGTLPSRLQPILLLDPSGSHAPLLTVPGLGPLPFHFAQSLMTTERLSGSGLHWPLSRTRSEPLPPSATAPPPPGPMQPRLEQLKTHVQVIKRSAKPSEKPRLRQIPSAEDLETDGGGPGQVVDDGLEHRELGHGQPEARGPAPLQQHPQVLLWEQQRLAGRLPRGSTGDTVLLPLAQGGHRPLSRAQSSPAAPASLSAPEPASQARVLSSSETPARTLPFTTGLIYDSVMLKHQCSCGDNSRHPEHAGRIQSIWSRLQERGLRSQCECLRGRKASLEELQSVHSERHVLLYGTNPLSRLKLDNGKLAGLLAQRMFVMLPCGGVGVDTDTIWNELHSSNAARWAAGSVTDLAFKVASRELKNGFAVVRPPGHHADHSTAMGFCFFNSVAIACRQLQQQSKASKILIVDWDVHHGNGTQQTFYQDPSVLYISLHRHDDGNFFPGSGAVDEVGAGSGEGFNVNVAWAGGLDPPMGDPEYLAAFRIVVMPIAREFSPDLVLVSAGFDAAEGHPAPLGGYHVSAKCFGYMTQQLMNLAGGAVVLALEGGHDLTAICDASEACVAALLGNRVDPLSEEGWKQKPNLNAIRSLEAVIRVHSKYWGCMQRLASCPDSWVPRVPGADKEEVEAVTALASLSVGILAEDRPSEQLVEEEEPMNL

Histone deacetylase 8 = target: T3, Histone deacetylase 8 (Homo sapiens, UniProt Q9BY41); experiment: Inhibition of HDAC8
T3 sequence (Q9BY41 whole entry): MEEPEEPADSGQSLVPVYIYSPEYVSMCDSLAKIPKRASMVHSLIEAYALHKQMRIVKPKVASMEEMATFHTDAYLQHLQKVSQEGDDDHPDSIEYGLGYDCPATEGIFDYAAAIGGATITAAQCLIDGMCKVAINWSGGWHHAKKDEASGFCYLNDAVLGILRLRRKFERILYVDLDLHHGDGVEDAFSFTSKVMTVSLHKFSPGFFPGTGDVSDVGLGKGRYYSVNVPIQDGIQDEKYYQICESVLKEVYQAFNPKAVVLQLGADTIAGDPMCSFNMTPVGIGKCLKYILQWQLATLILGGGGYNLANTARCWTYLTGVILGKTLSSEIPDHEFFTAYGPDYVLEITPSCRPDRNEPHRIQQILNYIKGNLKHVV

Chain of Histone deacetylase 1 (Q13547 whole entry): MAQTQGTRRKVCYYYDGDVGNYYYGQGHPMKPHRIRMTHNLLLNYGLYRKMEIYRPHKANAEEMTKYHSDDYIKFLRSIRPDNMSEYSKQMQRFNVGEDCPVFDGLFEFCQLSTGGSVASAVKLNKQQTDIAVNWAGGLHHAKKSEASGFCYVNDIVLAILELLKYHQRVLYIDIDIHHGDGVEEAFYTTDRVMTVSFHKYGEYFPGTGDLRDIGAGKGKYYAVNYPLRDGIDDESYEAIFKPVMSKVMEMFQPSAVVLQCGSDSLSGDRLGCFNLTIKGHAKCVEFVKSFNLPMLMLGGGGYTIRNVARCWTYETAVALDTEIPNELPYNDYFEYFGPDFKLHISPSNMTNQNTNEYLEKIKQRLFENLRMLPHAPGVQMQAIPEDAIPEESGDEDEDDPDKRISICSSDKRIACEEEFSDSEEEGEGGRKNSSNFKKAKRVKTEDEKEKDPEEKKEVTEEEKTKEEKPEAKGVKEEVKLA

Compound | IC50 (HeLa) | IC50 (Histone deacetylase 1) | microsomal CLint [1] | further results
CC(=O)CCCCC[C@H](NC(=O)C1CCN(C)CC1)c1nc(C)c(-c2ccccc2)[nH]1 | 14700 nM | > 1500 nM | – | –
CC(=O)CCCCC[C@H](NC(=O)c1cncs1)c1ncc(-c2ccccc2)[nH]1 | 530 nM | 140 nM | – | –
CC(=O)CCCCC[C@H](NC(=O)CN1CCN(C)CC1)c1ncc(-c2ccccc2)[nH]1 | 2000 nM | 500 nM | 64 µL/min/mg | –
CC(=O)CCCCC[C@H](NC(=O)C1CCN(C)CC1)c1ncc(-c2ccc(Cl)cc2)[nH]1 | 680 nM | 75 nM | 246 µL/min/mg | –
CC(=O)CCCCC[C@H](NS(=O)(=O)c1ccc(C#N)cc1)c1ncc(-c2ccccc2)[nH]1 | 1200 nM | 180 nM | – | –
CC(=O)CCCCC[C@H](NC(=O)c1cccc(C#N)c1)c1ncc(-c2ccccc2)[nH]1 | 1100 nM | 160 nM | – | –
CCCCC(=O)CCCCC[C@H](NC(=O)C1CCN(C)CC1)c1ncc(-c2ccc3ccccc3c2)[nH]1 | 690 nM | 74 nM | – | IC50 (Histone deacetylase 3): 180 nM; IC50 [2]: 3500 nM
CCCC(=O)CCCCC[C@H](NC(=O)C1CCN(C)CC1)c1ncc(-c2ccc3ccccc3c2)[nH]1 | 200 nM | 16 nM | – | IC50 (Histone deacetylase 3): 27 nM; IC50 [2]: 1400 nM
CC(=O)CCCCC[C@H](NS(=O)(=O)c1ccc([N+](=O)[O-])c(F)c1)c1ncc(-c2ccccc2)[nH]1 | 1000 nM | 130 nM | – | –
CC(=O)CCCCC[C@H](NC(=O)C1CCCN(C)C1)c1ncc(-c2ccccc2)[nH]1 (stereo partly drawn) | 400 nM | 220 nM | 154 µL/min/mg | –
CC(=O)CCCCC[C@H](NC(=O)CCN1CC2CCC1C2)c1ncc(-c2ccccc2)[nH]1 (stereo partly drawn) | 1700 nM | 220 nM | 143 µL/min/mg | –
CC(=O)CCCCC[C@H](NS(=O)(=O)c1cccc(C#N)c1)c1ncc(-c2ccccc2)[nH]1 | 1100 nM | 110 nM | – | –
CC(=O)CCCCC[C@H](NC(=O)C1CCN(C)CC1)c1ncc(-c2ccccn2)[nH]1 | 9700 nM | > 500 nM | – | –
CC(=O)CCCCC[C@H](NC(=O)C1CCN(C)CC1)c1ncc(-c2ccsc2)[nH]1 | 3200 nM | 240 nM | – | –
CC(=O)CCCCC[C@H](NC(=O)C1CCN(C)CC1)c1ncc(-c2ccc(C#N)cc2)[nH]1 | 1500 nM | 120 nM | 330 µL/min/mg | –
CC(=O)CCCCC[C@H](NS(=O)(=O)c1ccccc1C#N)c1ncc(-c2ccccc2)[nH]1 | 7300 nM | 270 nM | – | –
CC(=O)CCCCC[C@H](NC(=O)C1CCN(C)CC1)c1ncc(-c2ccc(-c3ccccc3)cc2)[nH]1 | 390 nM | 50 nM | 170 µL/min/mg | –

Compound | IC50 (HeLa) | IC50 (Histone deacetylase 1) | microsomal CLint [1] | further results
CC(=O)CCCCC[C@H](NC(=O)C1CCN(C)CC1)c1ncc(-c2ccccc2)[nH]1 | 980 nM | 250 nM | 68 µL/min/mg | –
CC(=O)CCCCC[C@H](NC(=O)C1CCN(C)CC1)c1ncc(-c2csc3ccccc23)[nH]1 | 1300 nM | 180 nM | – | –
CCC(=O)CCCCC[C@H](NC(=O)C1CCN(C)CC1)c1ncc(-c2ccc3ccccc3c2)[nH]1 | 210 nM | 12 nM | – | IC50 (Histone deacetylase 3): 12 nM; IC50 [2]: 800 nM
CC(=O)CCCCC[C@H](NC(=O)C1CCN(C)CC1)c1ncc(-c2cccc(C#N)c2)[nH]1 | 1540 nM | 480 nM | – | –
CC(=O)CCCCC[C@H](NS(=O)(=O)c1cccc([N+](=O)[O-])c1)c1ncc(-c2ccccc2)[nH]1 | 1300 nM | 55 nM | – | –
CC(=O)CCCCC[C@H](NC(=O)C1CCN(C)CC1)c1ncc(-c2cccc(Cl)c2)[nH]1 | 400 nM | 90 nM | – | –
CC(=O)CCCCC[C@H](NC(=O)C1CCN(C)CC1)c1ncc(C(C)(C)C)[nH]1 | > 25000 nM | > 5000 nM | – | –
CC(=O)CCCCC[C@H](NC(=O)C1CCN(C)CC1)c1ncc(-c2ccccc2Cl)[nH]1 | 1300 nM | 180 nM | – | –
COc1ccc2[nH]c(C)c(CC(=O)N[C@@H](CCCCCC(C)=O)c3ncc(-c4ccccc4)[nH]3)c2c1 | – | – | > 300 µL/min/mg | Activity (HCT-116): Active; IC50 (Histone deacetylase 4): > 1000 nM; IC50 (Histone deacetylase 5): > 1000 nM; IC50 (Histone deacetylase 7): > 1000 nM; IC50 (Histone deacetylase 8): > 1000 nM
CC(=O)CCCCC[C@H](NC(=O)CCN1CCCCC1)c1ncc(-c2ccccc2)[nH]1 | 1300 nM | 190 nM | > 300 µL/min/mg | –
CC(=O)CCCCC[C@H](NC(=O)C1CCN(C)CC1)c1ncc(-c2ccc(F)cc2)[nH]1 | 2200 nM | 380 nM | 99 µL/min/mg | –
CC(=O)CCCCC[C@H](NC(=O)C1CCN(C)C1)c1ncc(-c2ccccc2)[nH]1 (stereo partly drawn) | 1100 nM | 280 nM | 501 µL/min/mg | –
CC(=O)CCCCC[C@H](NC(=O)C1CCN(C)CC1)c1ncc(-c2ccc(Br)cc2)[nH]1 | 550 nM | 100 nM | > 300 µL/min/mg | –
CC(=O)CCCCC[C@H](NC(=O)C1CCCCN1C)c1ncc(-c2ccccc2)[nH]1 (stereo partly drawn) | 2700 nM | 710 nM | > 300 µL/min/mg | –
CC(=O)CCCCC[C@H](NC(=O)c1ccc2c(c1)OCCO2)c1ncc(-c2ccccc2)[nH]1 | 1100 nM | 300 nM | – | –
COc1ccc(S(=O)(=O)N[C@@H](CCCCCC(C)=O)c2ncc(-c3ccccc3)[nH]2)cc1 | 1400 nM | 250 nM | – | –
